Experiment [1] concerns NQO1 mRNA in BEAS-2B cells. In words: Beas2B NQO1 mRNA cell based assay. Also noted: species or system human. The conditions noted are these: 24 h compound treatment, increase in NQO1 mRNA vs vehicle (0.1% DMSO), read-out: EC50. Put shortly: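 BEAS-2B human bronchial epithelial cells exposed to compound for 24 h at 37 °C, 5% CO2. NQO1 mRNA measured by one-step TaqMan RT-qPCR on unpurified lysates, normalized to β-actin; relative expression by ΔΔCT method.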

The target of experiment [2] is human KEAP1 (N-term, residues 321-609) (Homo sapiens, UniProt Q14145). In words: biochemical.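 Also: fluorescence polarization competition assay of Kelch domain binding to NRF2, 12-point 1:3 dilution series from 10 µM, read after 1 h at room temperature, floor 10 nM.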
Procedure: Biological Assays KEAP1 Kelch Fluorescence Polarization (FP) Assay Method
Inhibition of the Kelch domain-NRF2 interaction was determined using a fluorescence polarization-based competition assay in a black 384-well microplate. Compounds were tested at a starting concentration of 10 μM serially diluted 1:3 to generate a 12-point dose response curve on the Biomek FX robot.
After 1 h at room temperature, fluorescence polarization (excitation 470 nm/emission 530 nm) was measured using an Envision plate reader. IC50 values were determined by fitting the data to a four parameter logistic fit using XLfit or XE Runner within ActivityBase.

Read-outs that look alike come from different tables or passages of the source.

Sequence of human KEAP1 (N-term, residues 321-609) (Q14145 321-609): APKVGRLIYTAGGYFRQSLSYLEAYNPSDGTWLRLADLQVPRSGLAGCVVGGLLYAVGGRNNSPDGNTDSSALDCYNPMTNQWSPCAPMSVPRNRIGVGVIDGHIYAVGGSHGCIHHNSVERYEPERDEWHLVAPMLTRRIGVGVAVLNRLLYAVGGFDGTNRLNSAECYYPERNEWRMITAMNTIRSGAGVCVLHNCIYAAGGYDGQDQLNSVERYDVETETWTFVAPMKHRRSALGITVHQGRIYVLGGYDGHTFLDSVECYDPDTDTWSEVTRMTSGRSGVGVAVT

Broadly, the EC50 is the midpoint of the concentration-response curve. As usually defined, the IC50 is the concentration at which inhibition is half-maximal. With `Cc1cnn(C[C@@H]2c3c(OCc4nnn(C)c4C(F)F)ccc(Cl)c3CCN2C(=O)[C@@H]2CCCC[C@@H]2C(=O)O)c1` [Example 84, (1S,2R)-2-((S)-5-chloro-8-((5-(difluoromethyl)-1-methyl-1H-1,2,3-triazol-4-yl)methoxy)-1-((4-methyl-1H-pyrazol-1-yl)methyl)-1,2,3,4-tetrahydroisoquinoline-2-carbonyl)cyclohexane-1-carboxylic acid], the EC50 in experiment [1] (Homo sapiens) was determined as 36 nM. Besides, the IC50 in experiment [2] turned out to be 6.1 nM.

Regarding `CC(Oc1ccc(Br)c2c1[C@@H](CN1Cc3ccccc3C1=O)N(C(=O)[C@@H]1CCCC[C@@H]1C(=O)O)CC2)c1cn(C(C)C)nn1` (single isomer, unassigned) [Example 47], the EC50 in experiment [1] came out at 76 nM. In experiment [2], this molecule gave a half-maximal inhibitory concentration (IC50) of 68 nM.

In the case of `C[C@]1(C(=O)O)CCCC[C@H]1C(=O)N1CCc2c(Cl)ccc(OCc3cncnc3C(F)F)c2[C@H]1CN1CC2(CC2)CC1=O` [Example 135, (1S,2R)-2-((S)-5-chloro-8-((4-(difluoromethyl)pyrimidin-5-yl)methoxy)-1-((6-oxo-5-azaspiro[2.4]heptan-5-yl)methyl)-1,2,3,4-tetrahydroisoquinoline-2-carbonyl)-1-methylcyclohexane-1-carboxylic acid], the EC50 in experiment [1] (Homo sapiens, BEAS-2B, 24 h) came out at 0.91 nM. Also, the 50% inhibitory concentration (IC50) in experiment [2] was 5.3 nM.

Regarding `C[C@]1(C(=O)O)CCC[C@H]1C(=O)N1CCc2c(Cl)ccc(OCc3nnn4c3CCCC4)c2[C@H]1CN1CC2(CC2)CC1=O` [Example 180, (1S,2R)-2-((S)-5-chloro-1-((6-oxo-5-azaspiro[2.4]heptan-5-yl)methyl)-8-((4,5,6,7-tetrahydro-[1,2,3]triazolo[1,5-a]pyridin-3-yl)methoxy)-1,2,3,4-tetrahydroisoquinoline-2-carbonyl)-1-methylcyclopentane-1-carboxylic acid], the concentration giving a half-maximal response (EC50) in experiment [1] (Homo sapiens, BEAS-2B, 24 h) was 1.1 nM. In experiment [2], this molecule displayed an IC50 of 7.6 nM.

For the molecule `CC(C)n1cc(COc2cccc3c2[C@@H](CN2Cc4ccccc4C2=O)N(C(=O)[C@@H]2CCCC[C@@H]2C(=O)O)CC3)nn1` [Example 17, (1S,2R)-2-((S)-8-((1-Isopropyl-1H-1,2,3-triazol-4-yl)methoxy)-1-((1-oxoisoindolin-2-yl)methyl)-1,2,3,4-tetrahydroisoquinoline-2-carbonyl)cyclohexane-1-carboxylic acid], the EC50 in experiment [1] (Homo sapiens, BEAS-2B, 24 h) came out at 110 nM. Moreover, inhibition in experiment [2] was half-maximal at 9.7 nM (IC50).

On to `Cc1nnc(COc2ccc(Br)c3c2[C@@H](CN2Cc4ccccc4C2=O)N(C(=O)[C@@H]2CCCC[C@@H]2C(=O)O)CC3)o1` [Example 36, (1S,2R)-2-((S)-5-bromo-8-((5-methyl-1,3,4-oxadiazol-2-yl)methoxy)-1-((1-oxoisoindolin-2-yl)methyl)-1,2,3,4-tetrahydroisoquinoline-2-carbonyl)cyclohexane-1-carboxylic acid], for which the EC50 in experiment [1] (Homo sapiens, BEAS-2B, 24 h) came to 130 nM. In addition, the IC50 in experiment [2] was 11 nM.

Take `Cc1cnc(COc2ccc(Br)c3c2[C@@H](CN2Cc4ccccc4C2=O)N(C(=O)[C@@H]2CCCC[C@@H]2C(=O)O)CC3)s1` [Example 28, (1S,2R)-2-((S)-5-Bromo-8-((5-methylthiazol-2-yl)methoxy)-1-((1-oxoisoindolin-2-yl)methyl)-1,2,3,4-tetrahydroisoquinoline-2-carbonyl)cyclohexane-1-carboxylic acid]: in experiment [1] (Homo sapiens, BEAS-2B, 24 h), the EC50 turned out to be 93 nM. The IC50 in experiment [2] came to 14 nM.

On to `O=C(O)[C@H]1CCCC[C@H]1C(=O)N1CCc2c(Cl)ccc(O[C@H]3CCN(C(=O)c4cncs4)C3)c2[C@H]1CN1C(=O)c2ccccc2C1=O` [Example 14, (1S,2R)-2-((S)-5-chloro-1-((1,3-dioxoisoindolin-2-yl)methyl)-8-(((S)-1-(thiazole-5-carbonyl)pyrrolidin-3-yl)oxy)-1,2,3,4-tetrahydroisoquinoline-2-carbonyl)cyclohexane-1-carboxylic acid], for which the EC50 in experiment [1] (Homo sapiens, BEAS-2B, 24 h) was found to be 2.9 nM. For the same molecule, in experiment [2], the midpoint of inhibition, the IC50, lay at 3.7 nM.

Turning to `Cn1nnc2cc(COc3cccc4c3[C@@H](CN3Cc5ccccc5C3=O)N(C(=O)[C@@H]3CCCC[C@@H]3C(=O)O)CC4)ccc21` [Example 18, (1S,2R)-2-((S)-8-((1-methyl-1H-benzo[d][1,2,3]triazol-5-yl)methoxy)-1-((1-oxoisoindolin-2-yl)methyl)-1,2,3,4-tetrahydroisoquinoline-2-carbonyl)cyclohexane-1-carboxylic acid], in experiment [1] (Homo sapiens, BEAS-2B, 24 h), the EC50 stood at 73 nM. In experiment [2], the half-maximal inhibitory concentration (IC50) was found to be 10 nM.

Turning to `Cc1onc(COc2ccc(Cl)c3c2[C@@H](CN2CC4(CC4)CC2=O)N(C(=O)[C@@H]2CCCC[C@]2(C)C(=O)O)CC3)c1C(F)F` [Example 157, (1S,2R)-2-((S)-5-chloro-8-((4-(difluoromethyl)-5-methylisoxazol-3-yl)methoxy)-1-((6-oxo-5-azaspiro [2.4]heptan-5-yl)methyl)-1,2,3,4-tetrahydroisoquinoline-2-carbonyl)-1-methylcyclohexane-1-carboxylic acid], in experiment [1] (Homo sapiens, BEAS-2B, 24 h), the EC50 was 4.9 nM. Further, inhibition in experiment [2] was half-maximal at 5.9 nM (IC50).

On to `CC(C)n1cc(COc2ccc(Br)c3c2[C@@H](CN2CC4(CC4)CC2=O)N(C(=O)[C@@H]2CCCC[C@@H]2C(=O)O)CC3)nn1` [Example 76, (1S,2R)-2-((S)-5-bromo-8-((1-isopropyl-1H-1,2,3-triazol-4-yl)methoxy)-1-((6-oxo-5-azaspiro[2.4]heptan-5-yl)methyl)-1,2,3,4-tetrahydroisoquinoline-2-carbonyl) cyclohexane-1-carboxylic acid], for which the EC50 in experiment [1] (Homo sapiens, BEAS-2B, 24 h) was 2.5 nM. In addition, the half-inhibitory concentration (IC50) in experiment [2] amounted to 6.7 nM.

Regarding `Cn1cnc(COc2ccc(Cl)c3c2[C@@H](CN2CC4(CC4)CC2=O)N(C(=O)[C@@H]2CCCC[C@]2(C)C(=O)O)CC3)c1` [Example 185, (1S,2R)-2-((S)-5-chloro-8-((1-methyl-1H-imidazol-4-yl)methoxy)-1-((6-oxo-5-azaspiro[2.4]heptan-5-yl)methyl)-1,2,3,4-tetrahydroisoquinoline-2-carbonyl)-1-methylcyclohexane-1-carboxylic acid], the EC50 in experiment [1] (Homo sapiens, BEAS-2B, 24 h) turned out to be 56 nM. The molecule also returned an IC50 in experiment [2] of 6.2 nM.

In the case of `Cc1ccc(OCc2cn(C(C)C)nn2)c2c1CCN(C(=O)[C@@H]1CCCC[C@@H]1C(=O)O)[C@@H]2CN1Cc2ccccc2C1=O` [Example 59, (1S,2R)-2-((S)-8-((1-isopropyl-1H-1,2,3-triazol-4-yl)methoxy)-5-methyl-1-((1-oxoisoindolin-2-yl)methyl)-1,2,3,4-tetrahydroisoquinoline-2-carbonyl)cyclohexane-1-carboxylic acid], the EC50 in experiment [1] (Homo sapiens, BEAS-2B, 24 h) came to 21 nM. The same molecule gave a 50% inhibitory concentration (IC50) in experiment [2] of 11 nM.

With `Cn1nnc(COc2ccc(Cl)c3c2[C@@H](CN2CCCC2=O)N(C(=O)C2C4CCC(C4)C2C(=O)O)CC3)c1C(F)F` (stereo partly drawn) [Example 96, 3-((S)-5-Chloro-8-((5-(difluoromethyl)-1-methyl-1H-1,2,3-triazol-4-yl)methoxy)-1-((2-oxopyrrolidin-1-yl)methyl)-1,2,3,4-tetrahydroisoquinoline-2-carbonyl)bicyclo[2.2.1]heptane-2-carboxylic acid], the 50% effective concentration (EC50) in experiment [1] (Homo sapiens, BEAS-2B, 24 h) was 210 nM. Besides, the IC50 in experiment [2] was 18 nM.

For `CC(=O)N1CC[C@H](Oc2ccc(Cl)c3c2[C@@H](CN2C(=O)c4ccccc4C2=O)N(C(=O)[C@@H]2CCCC[C@@H]2C(=O)O)CC3)C1` [Example 12, (1S,2R)-2-((S)-8-(((S)-1-Acetylpyrrolidin-3-yl)oxy)-5-chloro-1-((1,3-dioxoisoindolin-2-yl)methyl)-1,2,3,4-tetrahydroisoquinoline-2-carbonyl)cyclohexane-1-carboxylic acid], the concentration for a half-maximal effect (EC50) in experiment [1] (Homo sapiens, BEAS-2B, 24 h) is 8.6 nM. The molecule also came in with an IC50 in experiment [2] of 5.8 nM.

Regarding `O=C(O)[C@H]1CCCC[C@H]1C(=O)N1CCc2c(Cl)ccc(OCc3nsc4ccccc34)c2[C@H]1CN1CCCC1=O` [Example 68, (1S,2R)-2-((S)-8-(Benzo[d]isothiazol-3-ylmethoxy)-5-chloro-1-((2-oxopyrrolidin-1-yl)methyl)-1,2,3,4-tetrahydroisoquinoline-2-carbonyl)cyclohexane-1-carboxylic acid], in experiment [1] (Homo sapiens, BEAS-2B, 24 h), the EC50 was determined as 32 nM. In experiment [2], the IC50 turned out to be 8.4 nM.

Turning to `Cc1nc(COc2ccc(Cl)c3c2[C@@H](CN2CCCC2=O)N(C(=O)[C@@H]2CCCC[C@]2(C)C(=O)O)CC3)no1` [Example 168, (1S,2R)-2-((S)-5-chloro-8-((5-methyl-1,2,4-oxadiazol-3-yl)methoxy)-1-((2-oxopyrrolidin-1-yl)methyl)-1,2,3,4-tetrahydroisoquinoline-2-carbonyl)-1-methylcyclohexane-1-carboxylic acid], in experiment [1] (Homo sapiens, BEAS-2B, 24 h), the EC50 turned out to be 85 nM. Moreover, the IC50 in experiment [2] amounted to 8.5 nM.

Turning to `Cn1cc(COc2ccc(Cl)c3c2[C@@H](CN2CC4(CC4)CC2=O)N(C(=O)[C@@H]2CCCC[C@]2(C)C(=O)O)CC3)nn1` [Example 158, (1S,2R)-2-((S)-5-chloro-8-((1-methyl-1H-1,2,3-triazol-4-yl)methoxy)-1-((6-oxo-5-azaspiro[2.4]heptan-5-yl)methyl)-1,2,3,4-tetrahydroisoquinoline-2-carbonyl)-1-methylcyclohexane-1-carboxylic acid], in experiment [1] (Homo sapiens, BEAS-2B, 24 h), the EC50 is 1.2 nM. The midpoint of inhibition in experiment [2], the IC50, lay at 6.3 nM.

In the case of `O=C(O)[C@H]1CCCC[C@H]1C(=O)N1CCc2c(Br)ccc(OCc3cn(CC4CC4)nn3)c2[C@H]1CN1Cc2ccccc2C1=O` [Example 31, (1S,2R)-2-((S)-5-bromo-8-((1-(cyclopropylmethyl)-1 1,2,3-triazol-4-yl)methoxy)-1-((1-oxoisoindolin-2-yl)methyl)-1,2,3,4-tetrahydroisoquinoline-2-carbonyl)cyclohexane-1-carboxylic acid], the EC50 in experiment [1] (Homo sapiens, BEAS-2B, 24 h) was 8.5 nM. In addition, the IC50 in experiment [2] was 4.5 nM.

(Values after patent US12098148B2, “Therapeutic compounds” (C4X Discovery Limited, priority 2018, dated 2024).)
